Columns and labels:
[1] = target: T1, human recombinant serotonin (5-Hydroxytryptamine) 5-HT2A receptor (Homo sapiens, UniProt P28223); assay: Serotonin 5-HT2A radioligand binding ([3H]Ketanserin); conditions: percent inhibition of specific binding
T1 construct: expressed in transfected cells; host or cells: CHO-K1 cells
Method: (§1) Compounds of the invention were incubated with 0.5 nM [^3H]Ketanserin for 60 minutes at 25° C. Non-specific binding was estimated in the presence of 1 μM Mianserin. Receptor proteins were filtered and washed, the filters were then counted to determine [^3H]Ketanserin specifically bound. […] Biochemical assay results are presented as the percent inhibition of specific binding in Table 6.

[2] = target: T2, human recombinant dopamine D2L receptor (Homo sapiens, UniProt P14416); assay: Dopamine D2L radioligand binding ([3H]Spiperone); conditions: percent inhibition of specific binding
T2 construct: expressed in transfected cells; host or cells: CHO cells
T2 sequence (P14416 whole entry): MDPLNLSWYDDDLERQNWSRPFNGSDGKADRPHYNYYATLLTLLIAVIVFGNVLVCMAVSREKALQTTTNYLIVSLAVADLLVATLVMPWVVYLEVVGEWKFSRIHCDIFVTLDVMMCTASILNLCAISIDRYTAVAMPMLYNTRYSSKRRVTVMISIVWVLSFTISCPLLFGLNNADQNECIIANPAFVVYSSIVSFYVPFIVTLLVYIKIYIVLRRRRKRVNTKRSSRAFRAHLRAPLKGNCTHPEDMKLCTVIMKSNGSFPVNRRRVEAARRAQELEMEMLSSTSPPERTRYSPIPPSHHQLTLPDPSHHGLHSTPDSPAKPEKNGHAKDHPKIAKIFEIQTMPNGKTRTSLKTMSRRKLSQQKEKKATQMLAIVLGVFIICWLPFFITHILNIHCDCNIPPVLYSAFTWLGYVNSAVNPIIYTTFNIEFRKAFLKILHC
Method: Non-specific binding was estimated in the presence of 10 μM Haloperidol. Receptor proteins were filtered and washed, the filters were then counted to determine [^3H]Spiperone specifically bound. […] Biochemical assay results are presented as the percent inhibition of specific binding in Table 6.

[3] = target: T3, human recombinant histamine H2 receptor (Homo sapiens, UniProt P25021); assay: Histamine H2 radioligand binding ([125I]Aminopotentidine); conditions: percent inhibition of specific binding; screened at 1 μM; read-out: Inhibition of ligand binding, Hist. H2
T3 construct: expressed in transfected cells; host or cells: CHO-K1 cells
T3 sequence (P25021 whole entry): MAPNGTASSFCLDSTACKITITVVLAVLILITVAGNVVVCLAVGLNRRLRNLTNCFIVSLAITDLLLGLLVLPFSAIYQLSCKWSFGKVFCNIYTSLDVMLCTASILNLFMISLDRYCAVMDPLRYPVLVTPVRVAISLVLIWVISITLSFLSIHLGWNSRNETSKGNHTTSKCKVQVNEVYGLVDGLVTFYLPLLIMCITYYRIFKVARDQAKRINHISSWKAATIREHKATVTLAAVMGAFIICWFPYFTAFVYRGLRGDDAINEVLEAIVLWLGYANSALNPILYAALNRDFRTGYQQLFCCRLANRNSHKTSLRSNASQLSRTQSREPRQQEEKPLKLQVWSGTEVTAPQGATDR
In short: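 Test compounds were assessed for their ability to displace radioligand from the human recombinant histamine H2 receptor. Non-specific binding was determined in the presence of 3 μM Tiotidine, and results were expressed as percent inhibition of specific binding, with 1% DMSO serving as the vehicle.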

[4] = target: T4, human recombinant histamine H1 receptor (Homo sapiens, UniProt P35367); assay: Histamine H1 radioligand binding ([3H]Pyrilamine); conditions: percent inhibition of specific binding; screened at 1 μM; read-out: Inhibition of ligand binding, Hist. H1
T4 construct: expressed in transfected cells; host or cells: CHO cells
T4 sequence (P35367 whole entry): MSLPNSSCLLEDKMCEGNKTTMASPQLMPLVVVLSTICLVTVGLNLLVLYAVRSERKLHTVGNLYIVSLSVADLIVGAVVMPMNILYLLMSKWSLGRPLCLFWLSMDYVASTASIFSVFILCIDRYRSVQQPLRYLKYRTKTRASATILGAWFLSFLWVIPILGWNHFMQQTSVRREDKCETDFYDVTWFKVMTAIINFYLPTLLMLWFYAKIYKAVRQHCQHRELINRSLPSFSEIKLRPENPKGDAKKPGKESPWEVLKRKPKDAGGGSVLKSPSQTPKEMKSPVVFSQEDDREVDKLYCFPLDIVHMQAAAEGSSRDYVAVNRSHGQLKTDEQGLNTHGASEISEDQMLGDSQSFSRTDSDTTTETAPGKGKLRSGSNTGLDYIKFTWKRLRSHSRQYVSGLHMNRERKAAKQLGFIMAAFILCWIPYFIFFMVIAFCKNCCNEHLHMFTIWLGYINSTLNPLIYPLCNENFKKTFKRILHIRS
In short: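 Receptor expressed in CHO cells, assayed in 50 mM Tris-HCl pH 7.4 with 2 mM MgCl2, 100 mM NaCl, 250 mM sucrose. Compounds tested at 1 μM in 1% DMSO; non-specific binding set with 1 μM pyrilamine. Filter-bound radioactivity counted; values are percent inhibition of specific binding.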

[5] = target: T5, human recombinant adrenergic α2B receptor (Homo sapiens, UniProt P18089); assay: Adrenergic α2B radioligand binding ([3H]Rauwolscine); design: Inhibition of ligand binding, Adren. alpha2B: concentration or dose not given beside the values; conditions: percent inhibition of specific binding
T5 construct: expressed in transfected cells; host or cells: CHO-K1 cells
T5 sequence (P18089 1-450): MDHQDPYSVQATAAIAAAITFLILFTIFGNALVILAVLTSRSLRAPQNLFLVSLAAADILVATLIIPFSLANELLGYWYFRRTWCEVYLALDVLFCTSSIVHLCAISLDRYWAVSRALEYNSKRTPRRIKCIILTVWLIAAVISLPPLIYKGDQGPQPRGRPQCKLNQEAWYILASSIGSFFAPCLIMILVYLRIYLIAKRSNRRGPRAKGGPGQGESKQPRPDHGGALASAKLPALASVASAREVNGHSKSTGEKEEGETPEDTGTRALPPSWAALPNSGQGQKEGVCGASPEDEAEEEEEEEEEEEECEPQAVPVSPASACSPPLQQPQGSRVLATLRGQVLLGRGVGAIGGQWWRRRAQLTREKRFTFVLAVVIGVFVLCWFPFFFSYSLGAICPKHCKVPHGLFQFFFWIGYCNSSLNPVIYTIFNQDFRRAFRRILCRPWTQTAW
In short: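 Membranes from CHO-K1 cells expressing the receptor, in 50 mM Tris-HCl pH 7.4 with 12.5 mM MgCl2, 1 mM EDTA, 0.2% BSA, incubated with compounds and 2.5 nM [3H]Rauwolscine for 60 minutes at 25 °C.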

[6] = target: T6, human recombinant serotonin (5-Hydroxytryptamine) 5-HT2C receptor (Homo sapiens, UniProt P28335); assay: Serotonin 5-HT2C radioligand binding ([3H]Mesulergine); design: Inhibition of ligand binding, Ser. 5-HT2C: concentration or dose not given beside the values; conditions: percent inhibition of specific binding
T6 construct: expressed in transfected cells; host or cells: CHO-K1 cells
T6 sequence (P28335 33-458): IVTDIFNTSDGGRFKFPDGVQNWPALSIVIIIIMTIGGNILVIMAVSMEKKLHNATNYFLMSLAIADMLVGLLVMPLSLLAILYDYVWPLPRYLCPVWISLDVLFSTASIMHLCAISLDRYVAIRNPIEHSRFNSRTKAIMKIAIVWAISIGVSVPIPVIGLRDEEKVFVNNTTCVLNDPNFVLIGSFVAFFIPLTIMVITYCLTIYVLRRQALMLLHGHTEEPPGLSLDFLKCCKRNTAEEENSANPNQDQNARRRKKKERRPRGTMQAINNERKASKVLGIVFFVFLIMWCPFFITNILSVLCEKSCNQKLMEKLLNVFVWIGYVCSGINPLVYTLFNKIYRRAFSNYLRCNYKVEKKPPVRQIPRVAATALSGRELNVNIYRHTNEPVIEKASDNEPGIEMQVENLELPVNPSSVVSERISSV
Method: as §1, with “1” for “0.5”, “[^3H]Mesulergine” for “[^3H]Ketanserin”

T1 sequence (P28223 whole entry): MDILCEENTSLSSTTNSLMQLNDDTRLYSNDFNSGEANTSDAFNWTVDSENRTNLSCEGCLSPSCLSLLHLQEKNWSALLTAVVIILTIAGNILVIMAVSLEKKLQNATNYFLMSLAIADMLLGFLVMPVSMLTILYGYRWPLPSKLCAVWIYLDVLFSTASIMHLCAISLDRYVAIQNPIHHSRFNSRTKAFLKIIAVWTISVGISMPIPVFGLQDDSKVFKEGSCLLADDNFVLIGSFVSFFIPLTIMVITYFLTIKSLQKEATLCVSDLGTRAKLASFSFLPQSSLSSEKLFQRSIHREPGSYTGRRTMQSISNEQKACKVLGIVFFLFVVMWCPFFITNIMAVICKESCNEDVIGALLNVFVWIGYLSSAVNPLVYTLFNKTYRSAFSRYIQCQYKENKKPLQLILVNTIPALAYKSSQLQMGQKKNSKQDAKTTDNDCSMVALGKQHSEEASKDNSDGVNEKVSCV

| SMILES | Inhibition of ligand binding, Ser. 5-HT2A [1] [%] | Inhibition of ligand binding, Dop. D2L [2] [%] | inhibition at 1 µM [3] [%] | inhibition at 1 µM [4] [%] | Inhibition of ligand binding, Adren. alpha2B [5] [%] | Inhibition of ligand binding, Ser. 5-HT2C [6] [%] |
| --- | --- | --- | --- | --- | --- | --- |
| Cc1ccc(CCn2c3c(c4cc(Cl)ccc42)CN(c2cccc(C(F)(F)F)c2)CC3)cn1 [Compound 403, 8-Chloro-5-[2-(6-methyl-pyridin-3-yl)-ethyl]-2-(3-trifluoromethyl-phenyl)-2,3,4,5-tetrahydro-1H-pyrido[4,3-b]indole] | 32 | 2 | 10 | 54 | 46 | 35 |
| Cc1ccc(CCn2c3c(c4cc(Cl)c(F)cc42)CN(C)CC3)cn1 [Compound 404, 8-Chloro-7-fluoro-2-methyl-5-[2-(6-methyl-pyridin-3-yl)-ethyl]-2,3,4,5-tetrahydro-1H-pyrido[4,3-b]indole] | 88 | 35 | 88 | 102 | 95 | 78 |
| CN1CCN(CCn2c3c(c4cc(Cl)ccc42)CN(C)CC3)CC1 [Compound 417, 8-chloro-2,3,4,5-tetrahydro-2-methyl-5-(2-(4-methylpiperazin-1-yl)ethyl)-1H-pyrido[4,3-b]indole] | 23 | −12 | 19 | 10 | −1 | 29 |
| CN1CCc2c(c3cc(Cl)ccc3n2CCc2cncnc2)C1 [Compound 424, 8-Chloro-2-methyl-5-(2-pyrimidin-5-yl-ethyl)-2,3,4,5-tetrahydro-1H-pyrido[4,3-b]indole] | 52 | 17 | 19 | 104 | 94 | 76 |
| Cc1ccc2c(c1)c1c(n2CCc2cncc(C(F)(F)F)c2)CCN(C)C1 [Compound 425, 5-(2-(5-(trifluoromethyl)pyridin-3-yl)ethyl)-2,3,4,5-tetrahydro-2,8-dimethyl-1H-pyrido[4,3-b]indole] | 84 | −1 | 85 | 100 | 99 | 72 |
| CN1CCc2c(c3cc(Cl)ccc3n2CCc2cncc(C(F)(F)F)c2)C1 [Compound 426, 8-chloro-5-(2-(5-(trifluoromethyl)pyridin-3-yl)ethyl)-2,3,4,5-tetrahydro-2-methyl-1H-pyrido[4,3-b]indole] | 85 | −7 | 66 | 99 | 98 | 80 |
| Cc1cncc(CCn2c3c(c4cc(C)ccc42)CN(C)CC3)c1 [Compound 429, 2,3,4,5-tetrahydro-2,8-dimethyl-5-(2-(5-methylpyridin-3-yl)ethyl)-1H-pyrido[4,3-b]indole] | 76 | 23 | 68 | 100 | 115 | 84 |
| Cc1ccc2c(c1)c1c(n2CCc2cncc(Cl)c2)CCN(C)C1 [Compound 443, 5-(2-(5-chloropyridin-3-yl)ethyl)-2,3,4,5-tetrahydro-2,8-dimethyl-1H-pyrido[4,3-b]indole] | 94 | 29 | 94 | 102 | 117 | 95 |
| CN1CCc2c(c3cc(Cl)ccc3n2CCc2cncc(Cl)c2)C1 [Compound 444, 8-chloro-5-(2-(5-chloropyridin-3-yl)ethyl)-2,3,4,5-tetrahydro-2-methyl-1H-pyrido[4,3-b]indole] | 95 | 32 | 80 | 101 | 113 | 95 |
| CCCc1ccc(CCn2c3c(c4cc(C)ccc42)CN(C)CC3)cn1 [Compound 452, 2,8-Dimethyl-5-[2-(6-propyl-pyridin-3-yl)-ethyl]-2,3,4,5-tetrahydro-1H-pyrido[4,3-b]indole] | 97 | 52 | 92 | 109 | 104 | 93 |
| CC(Cn1c2c(c3ccccc31)CN(C)CC2)c1ccc(F)cc1 (stereo not drawn) [Compound 455] | 99 | 88 | 91 | 80 | 120 | 97 |
| Cc1ccc2c(c1)c1c(n2CC(C)c2ccc(F)cc2)CCN(C)C1 (stereo not drawn) [Compound 456, 5-(2-(4-fluorophenyl)propyl)-2,3,4,5-tetrahydro-2,8-dimethyl-1H-pyrido[4,3-b]indole] | 104 | 76 | 98 | 99 | 110 | 99 |
| Cc1ccc2c(c1)c1c(n2CC(=O)N2CCN(C)CC2)CCN(C)C1 [Compound 459, 2-(1,2,3,4-tetrahydro-2,8-dimethylpyrido[4,3-b]indol-5-yl)-1-(4-methylpiperazin-1-yl)ethanone] | 1 | −7 | -4 | 0 | −20 | 3 |
| CCCc1ccc(CCn2c3c(c4cc(Cl)ccc42)CN(C)CC3)cn1 [Compound 476, 8-chloro-2,3,4,5-tetrahydro-2-methyl-5-(2-(6-propylpyridin-3-yl)ethyl)-1H-pyrido[4,3-b]indole] | 100 | 30 | 96 | 98 | 97 | 96 |
